Patent publication US20090275565A1, “Substituted aralkyl derivatives” (CADILA HEALTHCARE LIMITED, priority 2002, published 2009)
Counter-ions that a name gives are not always drawn. Blank lines part the entries; values can stand above or below the compound they belong to.

Columns and labels:
[1] = tested on: hypercholesterolemic rat models; assay: Cholesterol lowering activity in hypercholesterolemic rat models; assay type: in vivo; settings: hypercholesterolemic male Sprague Dawley rats, oral, 3 mg/kg/day, serum
Description: • ii) Cholesterol lowering activity in hypercholesterolemic rat models
Male Sprague Dawley rats stock bred in Zydus animal house were maintained under 12 hour light and dark cycle at 25±1° C. Rats of 100-150 g body weight range were used for the experiment. Animals were made hypercholesterolemic by feeding 1% cholesterol and 0.5% sodium cholate mixed with standard laboratory chow (NIN, Hyderabad, India) and water ad libitum for 5 days. The animals were maintained on the same diet throughout the experiment [Petit D., Bonnefis M. T., Rey C and Infante R., Effects of ciprofibrate on liver lipids and lipoprotein synthesis in normal and hyperlipidemic rats, Atherosclerosis, 74, 215-225 (1988)].
The test compounds were administered orally at a dose 0.03 to 50 mg/kg/day for 4 days, after suspending it in 0.25% CMC or dissolving it in water when compound is water-soluble. Control group was treated with vehicle alone (0.25% of Carboxymethylcellulose; dose 10 ml/kg).
The blood samples were collected in fed state on 0th and 1 hour after drug administration on 6th day of the treatment. The blood was collected from the retro-orbital sinus through non-heparinised capillary and the serum samples were analyzed for triglyceride and total cholesterol using commercial kits (Zydus-Cadila, Pathline, Ahmedabad, India). LDL and HDL by commercial kits (point Scientific, USA). LDL and VLDL cholesterol were calculated from the data obtained for total cholesterol, HDL and triglyceride.
The reduction in VLDL cholesterol is calculated according to the formula.
VLDL cholesterol in mg/dl=Total cholesterol−HDL cholesterol−LDL cholesterol

[2] = tested on: C57BL/KsJ-db/db mice; assay: Serum glucose lowering activity in db/db mice models; assay type: in vivo; settings: male C57BL/KsJ-db/db mice, oral gavage, 3 mg/kg/day, 6 days, one hour after dosing on 6th day
Description: • iii) Serum glucose lowering activity in db/db mice models
Homozygous animal C57BL/KsJ-db/db mice are obese, hyperglycemic, hyperinsulinemic and insulin resistant (J. Clin. Invest., 85, 962-967, 1990), whereas heterozygous are lean and normoglycemic. The homozygous animals very closely mimic the human type II diabetes when blood sugar levels are not sufficiently controlled. Since this type of model resembles human type II diabetes mellitus, the compounds of the invention were tested for their antidiabetic activity in this model.
Male C57 BL/KsJ-db/db mice of 8 to 14 weeks age, having body weight range of 40 to 60 grams, procured from the Jackson Laboratory, USA, were used in the experiment.
Test compounds were suspended on 0.25% carboxymethyl cellulose or dissolved in water when the compound is water soluble and administered to test group containing 6 animals at a dose of 0.001 mg to 50 mg/kg through oral gavage daily for 6 days. The control group received vehicle (dose 10 ml/kg). On the 6th day, one hour after the drug dosing, blood was collected from retro-orbital sinus and the serum was analyzed for glucose and triglycerides were measured using commercial kits (Zydus-Cadila, Pathline, Ahmedabad, India). The serum glucose and triglyceride lowering activities of the test compound was calculated according of the formula: […]

[3] = tested on: Swiss albino mice; assay: Serum triglyceride and total cholesterol lowering activity in Swiss albino mice; assay type: in vivo; settings: male Swiss albino mice, oral, 3 mg/kg/day, 6 days, fed state 1 hour after dosing on 6th day
Description: Male Swiss albino mice (SAM) were bred in Zydus animal house. All these animals were maintained under 12 hour light and dark cycle at 25±1° C. Animals were given standard laboratory chow (NIN, Hyderabad, India) and water ad libitum. SAM of 20-30 g body weight range were used.
The test compounds were administered orally to Swiss albino mice at 0.001 to 50 mg/kg/day dose for 6 days. The compound was administered after suspending it in 0.25% CMC or dissolving it in water, when compound is water-soluble. Control mice were treated with vehicle (0.25% of Carboxymethylcellulose; dose 10 ml/kg).
The blood samples were collected on 0th day and in fed state 1 hour after drug administration on 6th day of the treatment. The blood was collected in non heparinised capillary and the serum was analyzed for triglyceride and total cholesterol (Wieland, O. Methods of Enzymatic analysis. Bergermeyer, H., O., Ed., 1963. 211-214; Trinder, P. Ann. Clin. Biochem. 1969. 6: 24-27). Measurement of serum triglyceride and total cholesterol was done using commercial kits (Zydus-Cadila, Pathline, Ahmedabad, India).
Percentage reduction in triglycerides/total cholesterol were calculated according to the formula: […]

melting point: 135 °C
Compound: CCO[C@H](CN)Cc1ccc(OCc2nc(-c3ccccc3)oc2C)cc1.O=C(O)C(=O)O

melting point: 175 °C
Compound: CCO[C@H](CN)Cc1ccc(OCCc2nc(-c3ccccc3)oc2C)cc1 (as salt: bisulphate) [Compound 167, Bisulphate Salt of 2S-Ethoxy-3-{4-[2-(5-methyl-2-phenyl-oxazol-4-yl)-ethoxy]-phenyl}-propyl amine]

Compound: CCO[C@@H](Cc1ccc(OCc2nc(-c3cccs3)oc2C)cc1)C(=O)O [Compound 27, (2S)-Ethoxy-3-[4-(5-methyl-2-thiophen-2-yl-oxazol-4-ylmethoxy)-phenyl]-propanoic acid]
Total cholesterol reduction (%) [1]: 44%

Compound: CCO[C@H](CO)Cc1ccc(OCCc2nc(-c3ccccc3)oc2C)cc1 [Compound 64, (2S)-Ethoxy-3-{4-[2-(5-methyl-2-phenyl-oxazol-4-yl)-ethoxy]-phenyl}-propan-1-ol]
Plasma TG reduction (%) [2]: 74%
Serum Glucose reduction (%) [2]: 56%

Compound: CCOC[C@H](Cc1ccc(OCCc2nc(-c3ccccc3)oc2C)cc1)OCC [Compound 84, 1-Ethoxy-(2S)-ethoxy-3-[4-{2-(5-methyl-2-phenyl-oxazol-4-yl)-ethoxy}-phenyl]-propane]
Plasma TG reduction (%) [2]: 47%
Serum Glucose reduction (%) [2]: 47%

Compound: CCO[C@H](COC(=O)CBr)Cc1ccc(OCCc2nc(-c3ccccc3)oc2C)cc1 [Compound 90, (2S)-Ethoxy-3-{4-[2-(5-methyl-2-phenyl-oxazol-4-yl)-ethoxy]-phenyl}-propyl bromo-acetate]
Total cholesterol reduction (%) [1]: 56%

Compound: CCO[C@H](CN)Cc1ccc(OCCc2nc(-c3ccccc3)oc2C)cc1 [Compound 134, (2S)-Ethoxy-3-{4-[2-(5-methyl-2-phenyl-oxazol-4-yl)-ethoxy]-phenyl}-propylamine]
% Triglyceride lowering [3]: 54%

Compound: CCO[C@H](CN)Cc1ccc(OCc2nc(-c3ccccc3)oc2C)cc1 [Compound 141, (2S)-Ethoxy-3-{4-[5-methyl-2-phenyl-oxazol-4-ylmethoxy]-phenyl}-propylamine]
Total cholesterol reduction (%) [1]: 61%
